# Experimental data taken from patent US7132458B2, “Oxidized carotenoid fractions and ketoaldehyde useful as cell-differentiation inducers, cytostatic agents, and anti-tumor agents” (Chemaphor Inc., priority 1994, dated 2006).
# Assays:
# [1] = system: HCT116; experiment: Cytostatic effect (Hoechst 33258 DNA fluorescence, 3 days); type: cell-based, human; parameters: key: +: activity higher; 0: similar to; −: less than the activity of β-Car^OX; conditions: ranked relative to β-Car^OX across six concentrations 2.5-45 μM
# Experimental: (§1) Fractions were tested for cytostatic properties and ability to induce differentiation. The results were compared with those obtained for β-Car^OX, which served as a reference indicating whether or not fractionation was leading to fractions with enhanced activity. Retinoic acid and/or β-carotene were used as controls in some of the cell lines tested in order to differentiate their effects from that of β-Car^OX. All of the samples were tested in identical ‘by weight’ concentrations. Comparisons have been done on a pseudo molarity scale by dividing the weight of sample used by the molecular weight of β-carotene (537 Da). Fractions were tested in human colon carcinoma (HCT116), human neuroblastoma (IMR32), human acute promyelocytic leukemia (NB4), human chronic myelogenous leukemia (K562), and mouse keratinocytes (Balb/c/MK).
# (§2) Fractions have been ranked relative to β-Car^OX by dividing each growth inhibition value at each sample concentration by the corresponding β-Car^OX value and determining qualitatively by inspection the trends across the six sample concentrations. Activities of fractions are expressed as “+”, “0”, and “−”, indicating activity higher, similar to, and less than the activity of β-Car^OX, respectively.
# [2] = system: IMR32; experiment: as above; type: cell-based, human; parameters: key: +: activity higher; 0: similar to; −: less than the activity of β-Car^OX; conditions: ranked relative to β-Car^OX across six concentrations 2.5-45 μM
# Experimental: as §1, §2
# [3] = system: K562; experiment: as above; type: cell-based, human; parameters: key: +: activity higher; 0: similar to; −: less than the activity of β-Car^OX; conditions: ranked relative to β-Car^OX across six concentrations 2.5-22.5 μM
# Experimental: as §1, §2
# [4] = system: NB4; experiment: as above; type: cell-based, human; parameters: key: +: activity higher; 0: similar to; −: less than the activity of β-Car^OX; conditions: ranked relative to β-Car^OX across six concentrations 2.5-22.5 μM
# Experimental: as §1, §2
# [5] = system: Balb/c/MK keratinocytes; experiment: Expression of cytokeratins in keratinocytes; type: cell-based, mouse; conditions: Ca^++ 1.8 mM, Retinoic Acid 3 μM, β-Car^OX 30 μM; for IA, intensity of expression per cell, Cytokeratins 1 and 10: control 4.4; for IA, intensity of expression per cell, panel (CAMON) of Cytokeratins: control 60.7; for A, percentage of immunopositive cells expressing Cytokeratins 1 and 10: control 90.3; for A, percentage of immunopositive cells expressing a panel (CAMON) of Cytokeratins: control 93.7
# Description: Qualitative data were provided in the first phase of research for the differentiation-inducing effect of β-Car^OX upon the mouse Balb/c/MK keratinocyte cell line.
# Cytokeratins 1 and 10 are high molecular weight proteins which are increasingly expressed with the progression of the differentiation program. […] Cells cultured in low calcium media remain proliferative. […] The apparently smaller effect of β-Car^OX compared to retinoic acid is due not to lower potency but to a delayed action and similar results are obtained using a panel of other cytokeratins (Cytokeratin coctail from CAMON containing cytokeratins 1–8, 10, 13, 14, 15, 16, 19).
# [6] = system: NB4 cells; experiment: Cell cycling, flow cytometry of intracellular DNA content; type: cell-based, human; conditions: synchronized populations, controls 22 hours
# Experimental: There is no G1 block. This effect is due to a lengthening of the duration of the cell cycle. […] The data were acquired using flow cytometry analysis of the individual intracellular DNA content of cells from synchronized populations. Sampling was done every 5 hours over a period of 48 hours.
# [7] = system: IMR32; experiment: Differentiating properties of combinations of β-Car^OX and retinoic acid; type: cell-based, human; conditions: Retinoic Acid L 1–2.5 μM alone
# Description: (§3) Given the cell differentiation-inducing properties of β-Car^OX and some of its fractions, it is instructive not only to compare the effects obtained with those of the better known all-trans retinoic acid, which is recognized as being able to regulate differentiation capacities of several mammalian cell types, but to determine also the effect upon cells when β-Car^OX and retinoic acid are used together. Table 4 presents qualitative data illustrating the results obtained with various combinations of β-Car^OX and retinoic acid in both the NB4 and IMR32 cell lines.
# (§4) When an equipotent concentration of β-Car^OX is combined with retinoic acid, their differentiation-inducing effects cancel out. However, when the concentration of either one of them is increased relative to the other, differentiation-induction is restored.
# [8] = system: NB4; experiment: as above; type: cell-based, human; conditions: Retinoic Acid L 0.1–1 μM alone
# Description: as §3, §4
# [9] = system: NB4 cell line; experiment: Expression of differentiation markers CD33, CD11b, CD15 at five days; type: cell-based, human; conditions: combined treatments 1 μM RA and 7.5 μM β-Car^OX or fraction
# Experimental: The cell differentiation-inducing effects of the fractions were determined qualitatively by observation of morphological changes in cell lines and quantitatively by measuring the expression of characteristic protein markers using monoclonal antibodies and flow cytometry. […] Many differentiation markers are expressed transiently during the differentiation program. In the NB4 cell line, protein CD33 is associated with early stages of differentiation, followed by protein CD11b, an intermediate marker, and eventually by protein CD15, an advanced differentiation marker. Enhanced differentiation therefore will be characterized by a decrease in the expression and intensity of the CD33 marker and an increase in expression and intensity of the CD15 marker.
# [10] = system: IMR32 cell line; experiment: Expression of NF and GFAP markers; type: cell-based, human; conditions: β-Car^OX 0 μM
# Description: Expression of glial fibrillary acidic protein, GFAP, is a useful marker indicating differentiation towards glial cells.
# [11] = system: DA-3 cell line; experiment: Viability (MTT test), melphalan with β-Car^OX; type: cell-based; conditions: Mus musculus
# Description: The benefit of the cellular GSH-lowering effect is illustrated by what happens to the viability of DA-3 cells, using the MTT test, treated with both β-Car^OX and melphalan, a classical anticancer agent.
compound,measurement,setting,value
CC1=C(/C=C/C(C)=C/C=C/C(C)=C/C(=O)O)C(C)(C)CCC1 [All trans Retinoic Acid],"Cytostatic Effect On Cell Lines, HCT116",[1],−
same,"Cytostatic Effect On Cell Lines, IMR32",[2],+
same,"Cytostatic Effect On Cell Lines, K562",[3],0
same,"Cytostatic Effect On Cell Lines, NB4",[4],0
same,"IA, intensity of expression per cell, Cytokeratins 1 and 10",[5],15.4 arbitrary units
same,"IA, intensity of expression per cell, panel (CAMON) of Cytokeratins",[5],129.8 arbitrary units
same,"A, percentage of immunopositive cells expressing Cytokeratins 1 and 10",[5],94.5
same,"A, percentage of immunopositive cells expressing a panel (CAMON) of Cytokeratins",[5],94.3
same,duration of the cell cycle,[6],18 h
same,Differentiation,[7],yes
same,Differentiation,[8],yes
same,"CD11b A, percentage of immunopositive cells",[9],71.9
same,"CD11b IA, average intensity of marker expression per cell",[9],2.6 arbitrary units
same,"CD15 A, percentage of immunopositive cells",[9],73.1
same,"CD15 IA, average intensity of marker expression per cell",[9],73.1 arbitrary units
same,"CD33 A, percentage of immunopositive cells",[9],87.1
same,"CD33 IA, average intensity of marker expression per cell",[9],1.6 arbitrary units
same,GFAP %,[10]; RA 1.0 μM,94.4%
same,GFAP intensity,[10]; RA 1.0 μM,18.4
same,NF %,[10]; RA 1.0 μM,96.4%
same,NF intensity,[10]; RA 1.0 μM,14.2
same,GFAP %,[10]; RA 2.5 μM,90.5%
same,GFAP intensity,[10]; RA 2.5 μM,6.1
same,NF %,[10]; RA 2.5 μM,97.2%
same,NF intensity,[10]; RA 2.5 μM,11.9
same,GFAP %,[10]; RA 5.0 μM,87.5%
same,GFAP intensity,[10]; RA 5.0 μM,5.2
same,NF %,[10]; RA 5.0 μM,95.5%
same,NF intensity,[10]; RA 5.0 μM,8.4
same,GFAP %,[10]; RA 10.0 μM,83.1%
same,GFAP intensity,[10]; RA 10.0 μM,4.0
same,NF %,[10]; RA 10.0 μM,92.0%
same,NF intensity,[10]; RA 10.0 μM,7.9
[Ca+2] [Ca^++],"IA, intensity of expression per cell, Cytokeratins 1 and 10",[5],13.8 arbitrary units
same,"IA, intensity of expression per cell, panel (CAMON) of Cytokeratins",[5],87.2 arbitrary units
same,"A, percentage of immunopositive cells expressing Cytokeratins 1 and 10",[5],96.5
same,"A, percentage of immunopositive cells expressing a panel (CAMON) of Cytokeratins",[5],97.6
CC1=C(/C=C/C(C)=C/C=C/C(C)=C/C=C/C=C(C)/C=C/C=C(C)/C=C/C2=C(C)CCCC2(C)C)C(C)(C)CCC1 [β-Carotene],"Cytostatic Effect On Cell Lines, HCT116",[1],−
same,"Cytostatic Effect On Cell Lines, IMR32",[2],0
same,"Cytostatic Effect On Cell Lines, K562",[3],−
same,"Cytostatic Effect On Cell Lines, NB4",[4],−
N[C@@H](Cc1ccc(N(CCCl)CCCl)cc1)C(=O)O [Melphalan],IC50,"[11]; DA-3, in presence of β-Car^OX 5 μM",40 µM
same,IC50,"[11]; DA-3, in presence of β-Car^OX 7.5 μM",44 µM
same,IC50,"[11]; DA-3, in presence of β-Car^OX 10 μM",6.6 µM
same,IC50,"[11]; DA-3, in presence of β-Car^OX 20 μM",6.8 µM
same,IC50,"[11]; DA-3, β-Car^OX 0 μM",100 µM
